Laboratory results: patent publication US20080171097A1, “PRODUCT LIQUORICE ROOT AND OAK BARK IN COMBINATION WITH DEXAPANTHENOL” (priority 2007, published 2008)

Test system: herpes disease in the lip region (herpes blisters)
Experiment: Topical application of the composition in the oral and/or pharyngeal cavity of voluntary test persons (herpes blisters, other inflammations)
Assay type: in vivo, human (voluntary test persons)
Details: a test subject
Source text: This composition was applied in the oral and/or pharyngeal cavity of voluntary test persons. When there were signs that herpes blisters were about to occur or when herpes blisters had already occurred, the composition was applied several times daily to the affected skin sites using a cotton bud. In the case of other inflammations in the oral and/or pharyngeal cavity the solution was also either applied locally or a dilution of this solution was gurgled.

Nc1nc2c(ncn2COCCO)c(=O)[nH]1 [Aciclovir]
relapse / reoccurrence after treatment and healing of acute herpes blisters: relapses very often occurred again within the following 14 days
